US20140308317A1, “Polymeric Compounds And Methods Of Making And Using The Same” (CELLCEUTIX CORPORATION, priority 2012, published 2014)
Values after ≈ are worked out from the molar mass of the structure shown. Like-named read-outs stand apart in the source and are kept apart here.

Tests used:
HepG2, HB-8065 = assay: Cytotoxicity colorimetric (tetrazolium) assay; type: cell-based, human
Summary of the method: (§1)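 HepG2 (MEM, 10% FBS) and NIH/3T3 (DMEM, 10% BCS) monolayers seeded at 2×10^4 cells/well 24 h before use, then exposed to compounds for one hour in serum-free medium. After return to serum-containing medium, viable cells read by tetrazolium bioreduction to formazan. EC50 in μg/mL from four-parameter logistic fit.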

[1] = tested on: Pseudomonas aeruginosa ATCC 10145; assay: Minimum Inhibitory Concentration (MIC), modified microbroth dilution; type: cell-based; settings: P. aeruginosa (10145), overnight incubation (18 hours)
[2] = tested on: Klebsiella pneumoniae ATCC 13883; assay: as above; type: cell-based; settings: K. pneumoniae (13883), overnight incubation (18 hours)
NIH/3T3 cells, CRL-1658 = assay: Cytotoxicity colorimetric (tetrazolium) assay; type: cell-based, mouse
Summary of the method: as §1

E. Coli ATCC 25922 = assay: Minimum Inhibitory Concentration (MIC), modified microbroth dilution; type: cell-based; settings: E. coli (25922), overnight incubation (18 hours)
[3] = tested on: Enterococcus faecalis ATCC 29212; assay: as above; type: cell-based; settings: E. faecalis (29212), overnight incubation (18 hours)
[4] = tested on: Staphylococcus aureus ATCC 27660; assay: as above; type: cell-based; settings: S. aureus (27660), overnight incubation (18 hours)
[5] = Cytotoxicity colorimetric (tetrazolium) assay; type: cell-based, human; settings: human, HepG2 cells (HB-8065), HepG2 cells; one hour with compound in serum-free media
Summary of the method: as §1

[6] = Cytotoxicity colorimetric (tetrazolium) assay; type: cell-based, mouse; settings: mouse, NIH/3T3 cells (CRL-1658), NIH/3T3 cells; one hour with compound in serum-free media
Summary of the method: as §1

[7] = HepG2 cells, one hour with compound in serum-free media
[8] = NIH/3T3 cells, one hour with compound in serum-free media

Row | SMILES | EC50 HepG2 (cytotoxicity) (HepG2, HB-8065; [7]) [µg/mL] | MIC50 P. Aeruginosa [1] [µg/mL] | MIC50 K. Pnuemnoiae [2] [µg/mL] | EC50 NIH 3T3 (cytotoxicity) (NIH/3T3 cells, CRL-1658; [8]) [µg/mL] | MIC50 E. coli (E. Coli ATCC 25922) [µg/mL] | MIC50 E. faecalis [3] [µg/mL] | MIC50 S. aureus [4] [µg/mL] | EC50 at 1 h [5] [µg/mL] | MIC50 ([1]; Pseudomonas aeruginosa, ATCC10145, read-out: MIC50 P. Aeruginosa) [µg/mL] | MIC50 ([2]; Klebsiella pneumoniae, ATCC13883, read-out: MIC50 K. Pnuemnoiae) [µg/mL] | EC50 at 1 h [6] [µg/mL] | MIC50 (E. Coli ATCC 25922; Escherichia coli, ATCC25922, read-out: MIC50 E. coli) [µg/mL] | MIC50 ([3]; Enterococcus faecalis, ATCC29212, read-out: MIC50 E. faecalis) [µg/mL] | MIC50 ([4]; Staphylococcus aureus, ATCC27660, read-out: MIC50 S. aureus) [µg/mL] | EC50 HepG2 (cytotoxicity) (HepG2, HB-8065) [µg/mL] | EC50 NIH 3T3 (cytotoxicity) (NIH/3T3 cells, CRL-1658) [µg/mL]
1 | NCCCOc1cc(OCCCN)cc(-c2cc(F)cc(-c3cc(F)cc(-c4cc(OCCCN)cc(OCCCN)c4)c3)c2)c1 [Compound 148] | 244 (≈ 384 µM) | 3.13 (≈ 4.93 µM) | 1.56 (≈ 2.46 µM) | 53.77 (≈ 84.7 µM) | 1.56 (≈ 2.46 µM) | 0.78 (≈ 1.23 µM) | 0.39 (≈ 0.614 µM) |  |  |  |  |  |  |  |  | 
2 | Cc1cc(-c2cc(OCCCN)cc(OCCCN)c2)cc(-c2cc(-c3cc(OCCCN)cc(OCCCN)c3)cc(C)c2F)c1F [Compound 149] | 98.5 (≈ 149 µM) | 6.25 (≈ 9.43 µM) | 3.13 (≈ 4.72 µM) | 59.19 (≈ 89.3 µM) | 3.13 (≈ 4.72 µM) | 1.56 (≈ 2.35 µM) | 0.78 (≈ 1.18 µM) |  |  |  |  |  |  |  |  | 
3 | N=C(N)NCCc1cc(CCNC(=N)N)cc(-c2cc(F)cc(-c3cc(F)cc(-c4cc(CCNC(=N)N)cc(CCNC(=N)N)c4)c3)c2)c1 [Compound 151] | 254 (≈ 372 µM) | 12.5 (≈ 18.3 µM) | 3.13 (≈ 4.58 µM) | 72.14 (≈ 106 µM) | 1.56 (≈ 2.28 µM) | 1.56 (≈ 2.28 µM) | 0.78 (≈ 1.14 µM) |  |  |  |  |  |  |  |  | 
4 | NCCc1cccc(-c2cc3c(c(-c4cccc(CCN)c4)c2)CCc2ccccc2C3=O)c1 [Compound 152] | 27.5 (≈ 61.6 µM) | 25 (≈ 56 µM) | 6.25 (≈ 14 µM) | 20.9 (≈ 46.8 µM) | 3.13 (≈ 7.01 µM) | 3.13 (≈ 7.01 µM) | 1.56 (≈ 3.49 µM) |  |  |  |  |  |  |  |  | 
5 | NCCc1cccc(-c2ccc3c(c2)C(=O)c2cc(-c4cccc(CCN)c4)ccc2CC3)c1 [Compound 153] | 80.6 (≈ 180 µM) | 25 (≈ 56 µM) | 6.25 (≈ 14 µM) | 53.3 (≈ 119 µM) | 6.25 (≈ 14 µM) | 3.13 (≈ 7.01 µM) | 1.56 (≈ 3.49 µM) |  |  |  |  |  |  |  |  | 
6 | NCCc1cccc(-c2ccc3c(c2)C(=O)c2cc(-c4cccc(CCN)c4)cc(-c4cccc(CCN)c4)c2CC3)c1 [Compound 154] | 85.4 (≈ 151 µM) | 6.25 (≈ 11 µM) | 6.25 (≈ 11 µM) | 53.4 (≈ 94.4 µM) | 1.56 (≈ 2.76 µM) | 6.25 (≈ 11 µM) | 0.78 (≈ 1.38 µM) |  |  |  |  |  |  |  |  | 
7 | NCCCOc1cc(OCCCN)cc(-c2ccc3c(c2)C(=O)c2cc(-c4cc(OCCCN)cc(OCCCN)c4)ccc2CC3)c1 [Compound 156] | 143.7 (≈ 220 µM) |  |  | 88.1 (≈ 135 µM) |  |  |  | 74.2 (≈ 114 µM) | 6.25 (≈ 9.57 µM) | 12.5 (≈ 19.1 µM) | 49.4 (≈ 75.7 µM) | 3.13 (≈ 4.79 µM) | 12.5 (≈ 19.1 µM) | 0.098 (≈ 0.15 µM) |  | 
8 | NCCCOc1cc(OCCCN)cc(-c2ccc3c(c2)c2ccccc2n3CCCN)c1 [Compound 161] |  | 50 (≈ 112 µM) | >50 |  | >50 | 3.13 (≈ 7.01 µM) | 25 (≈ 56 µM) |  |  |  |  |  |  |  | 790 (≈ 1770 µM) | >1000
9 | NCCNC(=O)c1cc(C(=O)NCCN)cc(-c2ccc3oc4ccc(-c5cc(C(=O)NCCN)cc(C(=O)NCCN)c5)cc4c3c2)c1 [Compound 168] | 72.6 (≈ 109 µM) | >50 | >50 | 32.4 (≈ 48.7 µM) | >50 | >50 | 3.13 (≈ 4.71 µM) |  |  |  |  |  |  |  |  | 
